This is an account of results in patent US20080194574A1, “Pyrazine Derivatives As Effective Compounds Against Infectious Diseases” (AXXIMA PHARMACEUTICALS AG, priority 2003, published 2008).

Where two headings read alike, the source gives them in different places.

This experiment concerns the target T1, viral kinase pUL-97 (Human cytomegalovirus, UniProt P16788).
T1 construct: The pUL-97 gene was cloned into a baculovirus vector; GST (glutathione S-transferase) (N); made in house; host or cells: Sf9 insect cells, baculovirus
Description: UL97 kinase assay on Immobilon plate. The format is biochemical. As to conditions: inhibition of UL 97 kinase activity, read-out: Activity Class [A, B, C]. On the procedure:
UL97 Kinase-Assay on Immobilon Plate
The effect of pyrazine derivatives of this invention was tested on the activity of the viral kinase pUL-97. This kinase is derived from human cytomegalovirus (HCMV) (M. Marschall et al., Journal of General Virology, 2001, 82, 1439-1450). The pUL-97 gene was cloned into a baculovirus vector in order to produce GST (glutathione S-transferase) fusion protein. Insect cells (Sf9) were infected and GST-UL-97 purified via glutathione affinity columns according to standard procedures.
The pUL-97 kinase reaction was performed as described (M. Marschall et al., Journal of General Virology, 2001, 82, 1439-1450). Briefly, 10 μl Assay buffer (3 μM ATP, 60 μg/ml myelin basic protein (MBP) as substrate), 1.0 μCi γ-[^33P]ATP and 10 μl Basic buffer (20 mM Tris-HCl pH7.5, 0.5 mM MnCl2, 1 mM DTT (Dithiothreitol)) were given to the test tube before adding various concentrations of pyrazine derivatives. The reaction was started by adding 0.2 μl pUL-97 kinase, purified from infected Sf9-insect cells as described above. The total volume was adjusted with Basic buffer to a final volume of 30 μl. The reaction mix was incubated for 1 hr at 30° C. For negative control, 10 μl 0.1M EDTA (Ethylene Diamine tetraacetate) was added to reaction mix before addition of pUL-97 protein kinase. The reaction was stopped by addition of 10 μl 0.1 M EDTA.
Measuring Incorporation of Radioactivity:
The Immobilon plate (Millipore) was rinsed with 50 μl methanol/well. Following addition of 100 μl 0.1 M EDTA, 20 μl of each kinase reaction mix was added to one well of the Immobilon plate. Each well was washed 4× with 250 μl 0.75% phosphoric acid and 1× with 50 μl methanol. After addition of 50 μl scintillation cocktail (Roth, Germany) per well incorporation of radioactivity was measured using a Betareader (Wallac) and enzymatic activity calculated.

The mark [1] stands for this setting: class by IC50 / % inhibition at 10 μM or 100 μM.
Where [2] appears, read: class by IC50 / % inhibition at 10 or 100 μM.

T1 sequence (P16788 whole entry): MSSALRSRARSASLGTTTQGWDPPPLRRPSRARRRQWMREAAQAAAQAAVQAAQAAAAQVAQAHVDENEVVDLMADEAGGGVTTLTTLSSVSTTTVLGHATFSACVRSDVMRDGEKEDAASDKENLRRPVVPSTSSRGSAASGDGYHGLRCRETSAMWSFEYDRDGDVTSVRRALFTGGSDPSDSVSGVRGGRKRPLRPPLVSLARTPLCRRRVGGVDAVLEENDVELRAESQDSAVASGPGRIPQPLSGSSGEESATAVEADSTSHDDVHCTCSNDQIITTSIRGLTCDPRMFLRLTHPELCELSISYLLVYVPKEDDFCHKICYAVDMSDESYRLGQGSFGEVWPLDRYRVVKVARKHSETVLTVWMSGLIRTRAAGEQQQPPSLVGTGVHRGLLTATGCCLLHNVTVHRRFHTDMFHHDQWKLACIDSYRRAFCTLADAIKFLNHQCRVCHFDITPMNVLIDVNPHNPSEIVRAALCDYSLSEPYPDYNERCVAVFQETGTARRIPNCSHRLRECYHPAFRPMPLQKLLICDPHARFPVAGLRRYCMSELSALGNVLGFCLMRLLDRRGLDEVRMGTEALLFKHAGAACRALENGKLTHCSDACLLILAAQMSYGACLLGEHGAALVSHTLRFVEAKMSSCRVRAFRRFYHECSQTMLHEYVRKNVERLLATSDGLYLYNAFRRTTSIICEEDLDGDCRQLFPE

As to `CCOc1ccc(-c2cncc(N3CCN(c4ccc(F)cc4)CC3)n2)cc1` [compound 271, 6′-(4-Ethoxy-phenyl)-4-(4-fluoro-phenyl)-3,4,5,6-tetrahydro-2H-[1,2′]bipyrazinyl], the IC50 under setting [1] was in the range of 10 to 100 µM.
On the same count and under the same terms, as for `Fc1ccc(-c2cncc(N3CCN(c4ccc(C(F)(F)F)cc4)CC3)n2)cc1` [compound 309, 6′-(4-Fluoro-phenyl)-4-(4-trifluoromethyl-phenyl)-3,4,5,6-tetrahydro-2H-[1,2′]bipyrazinyl], the figure is 10 to 100 µM.
Consider `Fc1ccccc1N1CCN(c2cncc(-c3ccoc3)n2)CC1` [compound 126, 4-(2-Fluoro-phenyl)-6′-furan-3-yl-3,4,5,6-tetrahydro-2H-[1,2′]bipyrazinyl], for which the IC50 under setting [2] fell in the range of 1 to 10 µM.
As to `CCNc1cncc(-c2ccc(C(N)=O)cc2)n1` [compound 40, 4-(6-Ethylamino-pyrazin-2-yl)-benzamide], under setting [2], the IC50 was in the range of 1 to 10 µM.
For the compound `CCOc1ccccc1-c1cncc(N2CCN(c3ccc(C(C)=O)cc3)CC2)n1` [compound 212, 1-{4-[6′-(2-Ethoxy-phenyl)-2,3,5,6-tetrahydro-[1,2′]bipyrazinyl-4-yl]-phenyl}-ethanone], the IC50 under setting [1] lay in the range of 10 to 100 µM.
Same read-out and setting: as for `COc1ccc(N2CCN(c3cncc(-c4ccsc4)n3)CC2)cc1OC` [compound 261, 4-(3,4-Dimethoxy-phenyl)-6′-thiophen-3-yl-3,4,5,6-tetrahydro-2H-[1,2′]bipyrazinyl], the figure is 1 to 10 µM; as for `COc1ccccc1N1CCN(c2cncc(-c3csc4ccccc34)n2)CC1` [compound 243, 6′-Benzo[b]thiophen-3-yl-4-(2-methoxy-phenyl)-3,4,5,6-tetrahydro-2H-[1,2′]bipyrazinyl], 10 to 100 µM.
Consider `COc1ccc(OC)c(-c2cncc(N3CCN(c4ccc(OC)c(OC)c4)CC3)n2)c1` [compound 225, 4-(3,4-Dimethoxy-phenyl)-6′-(2,5-dimethoxy-phenyl)-3,4,5,6-tetrahydro-2H-[1,2′]bipyrazinyl], for which the IC50 under setting [1] was in the range of 10 to 100 µM.
As for `COc1cccc(N2CCN(c3cncc(-c4cccc(C(C)=O)c4)n3)CC2)c1` [compound 368, 1-{3-[4-(3-Methoxy-phenyl)-3,4,5,6-tetrahydro-2H-[1,2′]bipyrazinyl-6′-yl]-phenyl}-ethanone], the IC50 under setting [1] was 1 to 10 µM.
Regarding `CC(=O)c1ccc(N2CCN(c3cncc(-c4ccoc4)n3)CC2)cc1` [compound 205, 1-[4-(6′-Furan-3-yl-2,3,5,6-tetrahydro-[1,2′]bipyrazinyl-4-yl)-phenyl]-ethanone], under setting [1], the IC50 lay within 1 to 10 µM.
Turning to `Clc1ccc(N2CCN(c3cncc(-c4ccoc4)n3)CC2)cc1` [compound 349, 4-(4-Chloro-phenyl)-6′-furan-3-yl-3,4,5,6-tetrahydro-2H-[1,2′]bipyrazinyl], the IC50 under setting [1] is 10 to 100 µM.
As to `O=C(NCCO)c1cccc(-c2cncc(N3CCN(c4ccncc4)CC3)n2)c1` [compound 39, N-(2-Hydroxy-ethyl)-3-(4-pyridin-4-yl-3,4,5,6-tetrahydro-2H-[1,2′]bipyrazinyl-6′-yl)-benzamide], under setting [2], the IC50 lay within 10 to 100 µM.
As for `COc1ccccc1N1CCN(c2cncc(-c3ccc(F)cc3)n2)CC1` [compound 106, 6′-(4-Fluoro-phenyl)-4-(2-methoxy-phenyl)-3,4,5,6-tetrahydro-2H-[1,2′]bipyrazinyl], the IC50 under setting [2] was 1 to 10 µM.
Same read-out and setting: under `COc1cccc(-c2cncc(N3CCN(c4ccncc4)CC3)n2)c1` [compound 78, 6′-(3-Methoxy-phenyl)-4-pyridin-4-yl-3,4,5,6-tetrahydro-2H-[1,2′]bipyrazinyl] stands 1 to 10 µM; under `Cc1ccc(-c2cncc(NCc3ccco3)n2)cc1C` [compound 51, [6-(3,4-Dimethyl-phenyl)-pyrazin-2-yl]-furan-2-ylmethyl-amine], 10 to 100 µM.
The same measure, in the same setting: as for `COc1ccc(C(C)C)cc1-c1cncc(N2CCN(c3ccncc3)CC2)n1` [compound 55, 6′-(5-Isopropyl-2-methoxy-phenyl)-4-pyridin-4-yl-3,4,5,6-tetrahydro-2H-[1,2′]bipyrazinyl], the figure is 10 to 100 µM.
As for `CC(C)(C)c1ccc(-c2cncc(N3CCN(c4cccc(C(F)(F)F)c4)CC3)n2)cc1` [compound 253, 6′-(4-tert-Butyl-phenyl)-4-(3-trifluoromethyl-phenyl)-3,4,5,6-tetrahydro-2H-[1,2′]bipyrazinyl], the IC50 under setting [1] was in the range of 10 to 100 µM.
On the same count and under the same terms, as for `Fc1ccccc1N1CCN(c2cncc(-c3ccc(C(F)(F)F)cc3)n2)CC1` [compound 197, 4-(2-Fluoro-phenyl)-6′-(4-trifluoromethyl-phenyl)-3,4,5,6-tetrahydro-2H-[1,2′]bipyrazinyl], the figure is 1 to 10 µM.
For `COc1ccccc1N1CCN(c2cncc(-c3ccc(N(C)C)cc3)n2)CC1` [compound 186, {4-[4-(2-Methoxy-phenyl)-3,4,5,6-tetrahydro-2H-[1,2′]bipyrazinyl-6′-yl]-phenyl}-dimethyl-amine], the IC50 under setting [2] is 10 to 100 µM.
As for `c1ccc2c(-c3cncc(N4CCN(c5ccncc5)CC4)n3)csc2c1` [compound 222, 6′-Benzo[b]thiophen-3-yl-4-pyridin-4-yl-3,4,5,6-tetrahydro-2H-[1,2′]bipyrazinyl], the IC50 under setting [1] was 1 to 10 µM.
As to `c1ccc(N2CCN(c3cncc(-c4cccs4)n3)CC2)nc1` [compound 31, 4-Pyridin-2-yl-6′-thiophen-2-yl-3,4,5,6-tetrahydro-2H-[1,2′]bipyrazinyl], the IC50 under setting [2] is 10 to 100 µM.
Regarding `Cc1ccc(N2CCN(c3cncc(-c4cccc5ccccc45)n3)CC2)cc1` [compound 230, 6′-Naphthalen-1-yl-4-p-tolyl-3,4,5,6-tetrahydro-2H-[1,2′]bipyrazinyl], the IC50 under setting [1] was 10 to 100 µM.
As to `CC(=O)c1ccccc1-c1cncc(N2CCN(c3cccc(C(F)(F)F)c3)CC2)n1` [compound 153, 1-{2-[4-(3-Trifluoromethyl-phenyl)-3,4,5,6-tetrahydro-2H-[1,2′]bipyrazinyl-6′-yl]-phenyl}-ethanone], the IC50 under setting [2] was 10 to 100 µM.
As to `Cc1ccc(N2CCN(c3cncc(-c4ccc(C(F)(F)F)cc4)n3)CC2)cc1` [compound 178, 4-p-Tolyl-6′-(4-trifluoromethyl-phenyl)-3,4,5,6-tetrahydro-2H-[1,2′]bipyrazinyl], the IC50 under setting [2] was in the range of 1 to 10 µM.
Take `c1ccc(N2CCN(c3cncc(-c4csc5ccccc45)n3)CC2)cc1` [compound 247, 6′-Benzo[b]thiophen-3-yl-4-phenyl-3,4,5,6-tetrahydro-2H-[1,2′]bipyrazinyl]: under setting [1], the IC50 lay within 1 to 10 µM.
Turning to `CC(=O)c1ccc(-c2cncc(N3CCN(c4ccncc4)CC3)n2)s1` [compound 65, 1-[5-(4-Pyridin-4-yl-3,4,5,6-tetrahydro-2H-[1,2′]bipyrazinyl-6′yl)-thiophen-2-yl]-ethanone], under setting [2], the IC50 was less than 1 µM.
As for `OCc1ccc(-c2cncc(N3CCN(c4ccncc4)CC3)n2)cc1` [compound 258, [4-(4-Pyridin-4-yl-3,4,5,6-tetrahydro-2H-[1,2′]bipyrazinyl-6′-yl)-phenyl]-methanol], the IC50 under setting [1] is 1 to 10 µM.
On to `Cc1ccc(-c2cncc(N3CCN(c4ccccn4)CC3)n2)cc1` [compound 328, 4-Pyridin-2-yl-6′-p-tolyl-3,4,5,6-tetrahydro-2H-[1,2′]bipyrazinyl], for which the IC50 under setting [1] lay within 1 to 10 µM.
Take `Fc1ccc(-c2cncc(N3CCN(c4ccccn4)CC3)n2)c(F)c1` [compound 19, 6′-(2,4-Difluoro-phenyl)-4-pyridin-2-yl-3,4,5,6-tetrahydro-2H-[1,2′]bipyrazinyl]: under setting [2], the IC50 was in the range of 10 to 100 µM.
For the compound `Fc1ccc(-c2cncc(N3CCN(c4ccccn4)CC3)n2)cc1` [compound 305, 6′-(4-Fluoro-phenyl)-4-pyridin-2-yl-3,4,5,6-tetrahydro-2H-[1,2′]bipyrazinyl], under setting [1], the IC50 lay within 1 to 10 µM.
Regarding `O=C(c1ccco1)N1CCN(c2cncc(-c3cccc(CO)c3)n2)CC1` [compound 58, Furan-2-yl-[6′-(3-hydroxymethyl-phenyl)-2,3,5,6-tetrahydro-[1,2′]bipyrazinyl-4-yl]-methanone], the IC50 under setting [2] was 10 to 100 µM.
In the case of `CC(=O)c1cccc(-c2cncc(N3CCN(c4cccc(C(F)(F)F)c4)CC3)n2)c1` [compound 162, 1-{3-[4-(3-Trifluoromethyl-phenyl)-3,4,5,6-tetrahydro-2H-[1,2′]bipyrazinyl-6′-yl]-phenyl}-ethanone], the IC50 under setting [2] lay in the range of 10 to 100 µM.
Take `Cc1ccccc1-c1cncc(N2CCN(c3ccccc3F)CC2)n1` [compound 124, 4-(2-Fluoro-phenyl)-6′-o-tolyl-3,4,5,6-tetrahydro-2H-[1,2′]bipyrazinyl]: under setting [2], the IC50 lay within 10 to 100 µM.
As for `c1ccc2c(-c3cncc(N4CCN(c5cnccn5)CC4)n3)cccc2c1` [compound 331, 6-Naphthalen-1-yl-2′,3′,5′,6′-tetrahydro-[2,1′;4′,2″]terpyrazine], the IC50 under setting [1] was in the range of 10 to 100 µM.
